How the values were obtained:
C57BL/6 mice = assay: Bone growth in four month old male C57BL/6 mice, daily i.p. for 30 days (uCT, histomorphometry, pQCT); format: in vivo, mouse
Procedure: Study endpoints included measurement of trabecular lumbar vertebrae 5 (LVB5) by uCT, showing 65% increase in bone volume over baseline at 75 mg/kg (FIG. 2).

mouse = assay: micro-CT bone formation assay in mice for SOST antagonist candidates; format: in vivo; details: test vs control solution, complete dosing schedule
Source text: Compounds useful in the methods of the present invention can be identified via a variety of methods known to one of skill in the art. Several exemplary methods for identifying such antagonists are described herein, including cell-based and in vitro techniques (Journal of Bone and Mineral Research 2006, 21(11), 1738-1749). A general method of identifying SOST antagonists involves evaluating the effects of antagonist candidates on bone formation under controlled conditions. Preferably bone formation is determined using micro-CT techniques on live animals. Preferred animals include rodents, more preferred are primates. Femur, tibia and vertebrae bones are particularly useful subjects for such study.
Briefly, the test animal is treated with a predetermined dose of a SOST antagonist candidate. […]
Once the dosing schedule has been completed, both test and control animals are examined to determine the quantity of bone formation present. […] Where necessary, levels of bone formation can be calculated by determining the volume of bone formation present in each animal. […]
For example, the mouse test animal is treated with a predetermined dose of a SOST antagonist candidate for a complete dosing schedule. […] Once the dosing schedule has been completed, both test and control animals are examined with sacrifice using micro-CT to determine the quantity of bone formation present.

Wnt pathway = Wnt pathway modulation to promote bone growth (FIG. 1); details: doses of 2.5 ng (low), 60 ng (medium), 125 ng (high)

COc1cc2c(cc1O)C[C@H]1c3c(cc(O)c(OC)c3-2)CCN1C [(S)-boldine]
increase in BV/TV of femur over baseline controls, pQCT (C57BL/6 mice; 60 mg/kg): 8% | increase in bone volume over baseline, trabecular lumbar vertebrae 5 (LVB5) by uCT (C57BL/6 mice; 75 mg/kg i.p. daily for 30 days, male C57BL/6 mice, FIG. 2): 65% | increase in BV/TV in trabecular long bone over saline controls, histomorphometry (C57BL/6 mice; all animals in both L (0.75 mg/kg) and H (75 mg/kg) groups, i.p. daily 30 days, p=0.05): 78% | bone growth (quantity of bone formation by micro-CT) (mouse): promoting bone growth | modulating the Wnt pathway to promote bone growth (Wnt pathway): modulating the Wnt pathway to promote bone growth

Reference: patent US20100092559A1 (OsteoGeneX Inc., priority 2008, published 2010)
